Measured values: ChEMBL document CHEMBL1201862, “PubChem BioAssay data set” (2004)
The source made the active and inactive calls.

Experiments:
[1] = cytotoxicity toward DRD oncogenic fibroblasts, dose response, cell-based, non-viral oncogenic, luminescence (AID 1934); format: functional; conditions: Homo sapiens
[2] = HEK293 cell cytotoxicity, dose response, cytotoxicity control, dry powder samples (AID 720567); format: functional, cell-based
BJ [3] = experiment: cells; format: functional, cell-based; conditions: Homo sapiens
BJ [4] = experiment: cytotoxicity toward BJ-TERT-LT-ST fibroblasts, dose response, cell-based, RAS-independent, luminescence (AID 1935); format: functional; conditions: Homo sapiens;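 also: BJ fibroblasts immortalized with TERT plus LT and ST oncogenes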
J774.A1 = experiment: Confirmation of image-based Screening Assay for Inhibitors of Phagocytosis. [Related pubchem assays (depositor defined):AID1029, AID1643]; format: functional, cell-based; conditions: Mus musculus
cells = format: functional, cell-based
BJ [5] = experiment: cytotoxicity toward BJ-TERT fibroblasts, dose response, cell-based, RAS-independent, luminescence (AID 1933); format: functional; conditions: Homo sapiens
[6] = luciferase reporter signal reduction – luminescence, H4-C neuroglioblastoma cells, dose response (AID 2458); format: functional, cell-based;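 also: H4 neuroglioblastoma cells stably carrying a luciferase reporter gene fusion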
[7] = inhibitors of SNCA 5'UTR-driven reporter translation, confirmation, H4 neuroglioma cells, luminescence (AID 1988); format: functional, cell-based
[8] = inhibitors of firefly luciferase expression or activity, dose response, H4 neuroglioma cells, luminescence (AID 1990); format: functional, cell-based
[9] = Luminescence Cell-Based Dose Response HTS to Identify Inhibitors of 5'UTR Stem-Loop Driven Prion Protein mRNA Translation in H4 Neuroglioblastoma Cells. [Related pubchem assays: 1827 (Project Summary), 1813 (Primary HTS)]; format: functional
[10] = cytotoxicity in HEK-293T cells, dose response, cytotoxicity control for TCR NF-kB inhibitor project, luminescence, T-cell screen hits (AID 489026); format: functional, cell-based;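 also: cells exposed to compound about 14 hours before the viability readout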
[11] = inhibitors of SNCA 5'UTR-driven translation, confirmation, luminescence, H4 neuroglioblastoma cells, dose confirmation (AID 2454); format: functional, cell-based;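 also: H4 neuroglioblastoma cells carrying an alpha-synuclein 5'UTR luciferase reporter; potency for inhibition of the luciferase signal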
[12] = target: Heat shock cognate 71 kDa protein (Homo sapiens, UniProt P11142); experiment: In Vitro Hsc70 Dose Response Fluorescence Polarization Assay. [Related pubchem assays: 1072 ]
Genome polyprotein = Genome polyprotein (dengue virus type 2, UniProt P29990); experiment: Dengue-2 NS5 methyltransferase inhibitors, primary screen, biochemical, confirmation dose response (AID 588689); format: functional
[13] = target: T1, RNA-binding protein pos-1 (Caenorhabditis elegans, UniProt G5EF15); experiment: inhibitors of POS-1/mex-3 RNA binding, dose response, biochemical, fluorescence polarization (AID 1964);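 also: purified POS-1 fused to maltose binding protein made in E. coli; potency of compounds blocking POS-1 binding to fluorescent RNA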
T1 sequence (G5EF15 whole entry): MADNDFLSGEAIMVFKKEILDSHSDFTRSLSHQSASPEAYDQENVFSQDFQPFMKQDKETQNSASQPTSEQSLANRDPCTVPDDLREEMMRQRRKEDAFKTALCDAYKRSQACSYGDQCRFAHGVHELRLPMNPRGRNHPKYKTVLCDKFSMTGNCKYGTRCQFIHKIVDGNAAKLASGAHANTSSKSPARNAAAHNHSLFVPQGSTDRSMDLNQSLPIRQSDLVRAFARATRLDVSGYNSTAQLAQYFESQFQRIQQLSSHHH

[14] = target: T2, Zinc finger protein mex-5 (Caenorhabditis elegans, UniProt Q9XUB2); experiment: MEX-5/TCR-2 RNA interaction inhibitors, dose response, biochemical, C. elegans, fluorescence polarization (AID 1960)
T2 sequence (Q9XUB2 whole entry): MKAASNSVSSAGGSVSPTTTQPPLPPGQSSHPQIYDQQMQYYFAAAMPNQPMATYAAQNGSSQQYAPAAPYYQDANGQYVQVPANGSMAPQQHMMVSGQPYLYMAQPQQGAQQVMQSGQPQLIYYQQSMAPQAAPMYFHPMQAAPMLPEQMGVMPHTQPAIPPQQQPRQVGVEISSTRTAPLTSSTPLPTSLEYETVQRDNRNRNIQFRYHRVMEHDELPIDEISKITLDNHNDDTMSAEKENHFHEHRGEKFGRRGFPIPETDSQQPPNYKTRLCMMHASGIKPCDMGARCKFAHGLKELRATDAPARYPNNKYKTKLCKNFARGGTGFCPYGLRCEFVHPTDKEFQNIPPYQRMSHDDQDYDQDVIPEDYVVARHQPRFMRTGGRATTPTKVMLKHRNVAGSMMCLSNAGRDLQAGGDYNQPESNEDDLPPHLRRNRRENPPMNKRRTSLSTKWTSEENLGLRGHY

ORF 73 = ORF 73 (Human herpesvirus 8, UniProt O40947); experiment: inhibitors of C-LANA binding to LBS DNA, dose response, biochemical, fluorescence polarization, cherry-picked samples (AID 504725); design: species or system Human gammaherpesvirus 8;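 also: fluorescence polarization of a labeled DNA duplex reporting LANA DNA binding; potency is for inhibitors that block LANA binding to the DNA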
[15] = target: Glyceraldehyde-3-phosphate dehydrogenase (Homo sapiens, UniProt P04406)
[16] = target: Heat shock 70 kDa protein 1A (Homo sapiens, UniProt P0DMV8); experiment: Hsp70 inhibitors, SAR follow-up, biochemical, fluorescence polarization (AID 1072)
[17] = target: T3, Polyadenylate-binding protein 1 (Homo sapiens, UniProt P11940); experiment: PABP1 MLLE–PAM2 interaction inhibitors, dose response, miRNA deadenylation inhibitor project, biochemical, fluorescence polarization, Cy5-PAM2 peptide, secondary (AID 602260); format: functional; conditions: read-out: IC50_Mean
Saccharomyces cerevisiae = experiment: NALP1 inhibitor project selectivity study, Caspase-1/ASC signal blockade IC50 in S. cerevisiae (AID 488863); format: functional, organism-based
[18] = target: T3, Polyadenylate-binding protein 1; experiment: PABP1 MLLE–PAM2 binding inhibitor potency, dose response, biochemical, fluorescence polarization, FITC-PAM2 peptide (AID 602259); format: functional; conditions: read-out: IC50_Mean
[19] = target: NACHT, LRR and PYD domains-containing protein 1 (Homo sapiens, UniProt Q9C000); experiment: NALP1 inhibitors in yeast, dose response, luminescent (AID 488860); format: functional

T3 sequence (P11940 whole entry): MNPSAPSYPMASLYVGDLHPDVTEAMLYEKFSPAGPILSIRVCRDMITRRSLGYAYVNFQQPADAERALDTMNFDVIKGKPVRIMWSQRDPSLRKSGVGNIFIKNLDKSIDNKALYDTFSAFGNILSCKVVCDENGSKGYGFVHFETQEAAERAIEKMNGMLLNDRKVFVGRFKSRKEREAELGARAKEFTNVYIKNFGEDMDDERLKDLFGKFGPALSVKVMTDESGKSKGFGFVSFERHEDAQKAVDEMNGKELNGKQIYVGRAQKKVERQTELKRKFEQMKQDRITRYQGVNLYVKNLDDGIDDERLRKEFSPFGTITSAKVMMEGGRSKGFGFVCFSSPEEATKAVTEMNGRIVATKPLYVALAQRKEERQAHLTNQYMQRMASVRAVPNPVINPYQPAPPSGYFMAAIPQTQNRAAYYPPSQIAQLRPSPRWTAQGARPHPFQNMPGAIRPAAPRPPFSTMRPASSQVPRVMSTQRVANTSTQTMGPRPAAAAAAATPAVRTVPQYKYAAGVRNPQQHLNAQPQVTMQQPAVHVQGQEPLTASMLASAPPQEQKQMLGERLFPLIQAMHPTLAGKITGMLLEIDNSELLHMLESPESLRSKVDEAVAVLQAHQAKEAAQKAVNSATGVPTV
Sequence of Genome polyprotein (P29990 2492-3391 limits assumed): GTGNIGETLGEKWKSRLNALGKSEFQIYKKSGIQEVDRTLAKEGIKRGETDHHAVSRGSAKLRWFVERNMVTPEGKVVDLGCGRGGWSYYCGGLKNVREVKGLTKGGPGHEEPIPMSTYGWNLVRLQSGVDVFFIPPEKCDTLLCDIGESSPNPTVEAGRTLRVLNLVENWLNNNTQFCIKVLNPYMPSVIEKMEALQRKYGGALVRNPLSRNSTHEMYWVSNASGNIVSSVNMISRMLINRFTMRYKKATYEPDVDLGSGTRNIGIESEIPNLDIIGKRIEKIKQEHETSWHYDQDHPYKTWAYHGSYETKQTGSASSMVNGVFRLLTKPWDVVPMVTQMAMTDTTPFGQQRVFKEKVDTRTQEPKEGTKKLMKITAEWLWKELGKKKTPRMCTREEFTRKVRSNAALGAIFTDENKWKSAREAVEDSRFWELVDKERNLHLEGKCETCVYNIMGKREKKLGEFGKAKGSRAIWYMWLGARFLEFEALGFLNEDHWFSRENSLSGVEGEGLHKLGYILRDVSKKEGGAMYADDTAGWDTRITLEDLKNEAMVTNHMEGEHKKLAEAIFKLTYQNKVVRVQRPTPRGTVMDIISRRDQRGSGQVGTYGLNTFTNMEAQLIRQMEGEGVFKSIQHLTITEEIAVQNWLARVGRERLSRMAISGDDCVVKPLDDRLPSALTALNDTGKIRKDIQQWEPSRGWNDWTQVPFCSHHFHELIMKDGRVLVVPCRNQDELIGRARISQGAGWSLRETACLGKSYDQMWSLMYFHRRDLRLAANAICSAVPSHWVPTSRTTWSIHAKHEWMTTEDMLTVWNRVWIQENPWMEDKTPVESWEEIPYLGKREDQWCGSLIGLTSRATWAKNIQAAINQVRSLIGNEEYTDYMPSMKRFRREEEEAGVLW
Sequence of Heat shock 70 kDa protein 1A (P0DMV8 whole entry): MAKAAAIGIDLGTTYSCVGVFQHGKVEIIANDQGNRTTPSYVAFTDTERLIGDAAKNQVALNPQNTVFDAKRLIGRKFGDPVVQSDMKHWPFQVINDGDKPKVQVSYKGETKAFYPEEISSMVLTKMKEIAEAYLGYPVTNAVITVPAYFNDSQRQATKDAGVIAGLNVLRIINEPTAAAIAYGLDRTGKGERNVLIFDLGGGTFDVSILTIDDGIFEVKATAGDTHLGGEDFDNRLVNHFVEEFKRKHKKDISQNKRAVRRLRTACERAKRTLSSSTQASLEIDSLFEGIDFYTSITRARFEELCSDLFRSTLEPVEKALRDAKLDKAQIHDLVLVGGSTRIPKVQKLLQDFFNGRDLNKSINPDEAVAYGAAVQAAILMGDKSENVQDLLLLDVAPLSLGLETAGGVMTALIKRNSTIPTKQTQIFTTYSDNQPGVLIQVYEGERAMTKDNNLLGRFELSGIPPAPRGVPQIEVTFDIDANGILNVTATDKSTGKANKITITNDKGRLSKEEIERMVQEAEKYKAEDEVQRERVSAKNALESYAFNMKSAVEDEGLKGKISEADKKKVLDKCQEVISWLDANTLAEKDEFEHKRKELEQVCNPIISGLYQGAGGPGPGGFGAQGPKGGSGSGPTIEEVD
Sequence of Glyceraldehyde-3-phosphate dehydrogenase (P04406 whole entry): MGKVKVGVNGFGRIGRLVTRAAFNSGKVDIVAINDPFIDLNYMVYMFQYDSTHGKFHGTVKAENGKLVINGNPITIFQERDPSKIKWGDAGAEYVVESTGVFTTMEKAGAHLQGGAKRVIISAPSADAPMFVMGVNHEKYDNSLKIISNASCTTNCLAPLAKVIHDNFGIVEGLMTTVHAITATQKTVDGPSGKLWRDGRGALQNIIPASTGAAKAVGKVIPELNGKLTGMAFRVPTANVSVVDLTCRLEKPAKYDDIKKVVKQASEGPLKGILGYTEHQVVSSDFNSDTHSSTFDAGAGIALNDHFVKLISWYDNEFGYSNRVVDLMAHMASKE
Sequence of ORF 73 (O40947 whole entry): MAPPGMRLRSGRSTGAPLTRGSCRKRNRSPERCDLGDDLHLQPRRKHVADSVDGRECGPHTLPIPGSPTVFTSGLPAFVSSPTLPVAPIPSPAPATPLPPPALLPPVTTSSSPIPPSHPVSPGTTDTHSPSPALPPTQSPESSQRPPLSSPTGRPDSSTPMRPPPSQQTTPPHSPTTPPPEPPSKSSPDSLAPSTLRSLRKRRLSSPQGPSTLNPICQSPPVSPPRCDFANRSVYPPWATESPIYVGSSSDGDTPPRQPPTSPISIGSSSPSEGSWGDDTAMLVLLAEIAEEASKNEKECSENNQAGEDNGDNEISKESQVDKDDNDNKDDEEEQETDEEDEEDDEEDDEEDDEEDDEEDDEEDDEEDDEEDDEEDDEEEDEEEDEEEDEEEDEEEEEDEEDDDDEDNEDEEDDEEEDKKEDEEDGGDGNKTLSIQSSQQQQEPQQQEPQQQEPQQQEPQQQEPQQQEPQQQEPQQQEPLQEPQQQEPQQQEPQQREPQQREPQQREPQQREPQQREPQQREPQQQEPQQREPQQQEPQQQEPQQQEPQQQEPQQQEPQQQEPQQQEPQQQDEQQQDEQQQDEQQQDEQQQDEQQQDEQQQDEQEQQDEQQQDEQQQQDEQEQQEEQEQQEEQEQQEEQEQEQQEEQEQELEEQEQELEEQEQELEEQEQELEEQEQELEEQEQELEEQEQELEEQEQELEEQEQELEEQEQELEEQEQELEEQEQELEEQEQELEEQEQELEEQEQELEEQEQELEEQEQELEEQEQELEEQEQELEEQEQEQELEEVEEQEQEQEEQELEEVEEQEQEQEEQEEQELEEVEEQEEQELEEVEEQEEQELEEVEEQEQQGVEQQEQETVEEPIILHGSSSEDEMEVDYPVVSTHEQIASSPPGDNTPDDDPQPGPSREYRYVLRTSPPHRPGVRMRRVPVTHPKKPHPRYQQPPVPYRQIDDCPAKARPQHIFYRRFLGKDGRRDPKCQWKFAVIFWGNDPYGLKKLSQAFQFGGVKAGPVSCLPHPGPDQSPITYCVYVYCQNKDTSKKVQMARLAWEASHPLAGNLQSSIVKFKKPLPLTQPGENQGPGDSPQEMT
Sequence of Heat shock cognate 71 kDa protein (P11142 whole entry): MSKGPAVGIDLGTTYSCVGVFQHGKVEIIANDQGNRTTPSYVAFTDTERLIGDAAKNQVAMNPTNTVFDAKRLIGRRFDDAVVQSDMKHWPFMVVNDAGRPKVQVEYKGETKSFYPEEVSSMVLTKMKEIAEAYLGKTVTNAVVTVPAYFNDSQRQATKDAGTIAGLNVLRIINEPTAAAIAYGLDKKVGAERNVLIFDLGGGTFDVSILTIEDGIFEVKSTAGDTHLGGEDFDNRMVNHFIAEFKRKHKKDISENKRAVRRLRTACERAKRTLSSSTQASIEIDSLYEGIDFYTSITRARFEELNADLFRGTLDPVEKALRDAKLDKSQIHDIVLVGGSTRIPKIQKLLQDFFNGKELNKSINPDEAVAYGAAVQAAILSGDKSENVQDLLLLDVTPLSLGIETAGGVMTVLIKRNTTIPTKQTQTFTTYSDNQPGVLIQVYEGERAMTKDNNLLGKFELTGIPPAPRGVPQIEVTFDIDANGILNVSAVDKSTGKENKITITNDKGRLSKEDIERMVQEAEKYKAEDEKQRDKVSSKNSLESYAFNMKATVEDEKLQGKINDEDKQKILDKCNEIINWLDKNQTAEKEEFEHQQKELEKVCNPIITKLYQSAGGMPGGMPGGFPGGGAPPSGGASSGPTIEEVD

In the case of `Cc1cc(C)cc(C(=O)N2CC(=O)Nc3ccccc32)c1`, the EC50 [1] is reported as 0.817 µM (active), the AC50 [2] is reported as > 30 µM (inactive) and the EC50 (BJ [3]) is reported as 3.38 µM (active). The EC50 (BJ [4]) was 11.5 µM (inconclusive), the IC50 (J774.A1) was 0.161 µM (active) and the EC50 (cells) was 0.858 µM (active). The EC50 (BJ [5]) was 1.24 µM (inconclusive), the EC50 [6] was 0.921 µM (active) and the EC50 [7] was < 0.1 µM (active). For the same molecule, the EC50 [8] was 1.09 µM (active), the EC50 [9] was < 0.1 µM (active) and the IC50 [10] was > 80 µM (inactive). The EC50 [11] was > 12 µM (inconclusive).

With `CCN(CC)C(=O)c1ccc2c(c1)C1C=CCC1C(C(=O)O)N2` (centres undefined) the IC50 [12] was > 100 µM (not active), the IC50 (Genome polyprotein) was 86.7 µM (active) and the EC50 [13] was 11.2 µM (active). For the same molecule, the EC50 [14] was 6.32 µM (active), the AC50 (ORF 73) was 166 µM (active) and the IC50 [15] was > 100 µM (not active). For the same molecule, the IC50 [16] was > 100 µM (not active).

For `Cc1ccc(N2C(=O)CC(Sc3ccccc3C(=O)O)C2=O)cc1` (centres undefined), the IC50 [17] was > 66 µM (inactive), the IC50 (Saccharomyces cerevisiae) was 20.6 µM (active) and the IC50 [18] was > 66 µM (inactive). For the same molecule, the IC50 [19] was 34.4 µM (active).
